The values below are quoted from earlier work in paper PMC6848746 (Psychopharmacology, 2019).

Read-outs that look alike come from different tables or passages of the source.

In series [1] the test system is hDAT. The following applies: cited from earlier work.
In series [2] the target is hDAT. The following applies: read-out: [125I]RTI-55 binding to hDAT Ki; ref Eshleman et al. 2017; cited from earlier work.
Series [3] relates to rats. The conditions noted are these: MMAI discrimination; ref Marona-Lewicka and Nichols 1994, 1998; cited from earlier work.
A further series deals with 5-HT2B receptor. The following applies: read-out: 5-HT2B receptor Ki, vs. [3H]LSD, cited from earlier work.
In series [4] the test system is rats. The following applies: ref Bilsky et al. 1990, Marona-Lewicka et al. 1996; cited from earlier work.

The IC50 is the concentration needed to halve the response being measured. The term Ki denotes a measure of affinity in units of concentration, obtained from inhibition or displacement. As for `CN[C@@H](C)Cc1ccccc1` [methamphetamine], in the series on hDAT [1] (read-out: [3H]DA uptake inhibition IC50, ref Eshleman et al. 2017), the IC50 was 66.7 nM. Further, the “fold higher potency for [3H]DA uptake inhibition than [125I]RTI-55 displacement” value with hDAT [1] (ref Eshleman et al. 2017) is on record as “about 70 fold”. In addition, the Ki at hDAT [2] is 4.58 µM.
Regarding `COC(=O)[C@H]1[C@@H](OC(=O)c2ccccc2)C[C@@H]2CC[C@H]1N2C` [cocaine, reference compound], the “substitution for MMAI” value in the series with rats [3] is listed as “did not substitute”.
For the molecule `NC1Cc2ccc(I)cc2C1` (stereo not drawn) [5-IAI, 5-iodo-2-aminoindan], the Ki at 5-HT2B receptor (ref Iversen et al. (2013)) was 70 nM.
For the molecule `CNC(C)Cc1ccc2c(c1)OCO2` (stereo not drawn) [MDMA, 3,4-methylenedioxymethamphetamine, reference compound], the “substitution for MMAI” value in the series with rats [3] is listed as “fully substituted”. In addition, the place conditioning effect result with rats [4] is “conditioned place preference”. The Ki at 5-HT2B receptor (ref Setola et al. 2003) was 500 nM.
As for `CC[C@@H](Cc1ccc2c(c1)OCO2)NC` [S-(+)-MBDB, S-(+)-N-methyl-1-(1,3-benzodioxol-5-yl)-2-butanamine, reference compound], the “substitution for MMAI” value in the series with rats [3] was “fully substituted”.
Regarding `C[C@H](N)Cc1ccccc1` [(+)-amphetamine, reference compound], the “substitution for MMAI” value in the series with rats [3] was “did not substitute”.
As to `CC(N)Cc1ccc2c(c1)OCO2` (stereo not drawn) [MDA], the Ki at 5-HT2B receptor (ref Setola et al. 2003) was 100 nM.
With `CCN[C@@H](C)Cc1cccc(C(F)(F)F)c1` [(+)-fenfluramine, reference compound], in the series on rats [3], the “substitution for MMAI” value is on record as “fully substituted”.
